According to patent publication US5919770A, “Metabolites of ginseng saponins by human intestinal bacteria and its preparation for an anticancer” (Il Hwa Co., Ltd., priority 1996, dated 1999):
pIC50: −log10 of the molar value.

Tests used:
[1] = system: cancer cells; conditions: Japanese Patent No. 93-9123, Sato et al. 1994; cited from earlier work
[2] = system: leukemia cell line (P388); test: Antitumor activity of mouse spleen lymphocytes on leukemia cell line P388 (MTT); format: cell-based, mice; conditions: for activity at 2.5 µM: P388, 2.5 μM for 16 hours (Compound K 1.56, Compound Y 1.86, Ginsenoside Mc 1.86, 20(S)-protopanaxatriol 1.19 μg/ml), control 31.3%; for fold induction at 2.5 µM: P388, 16 h, read-out: Antitumor activity, times as high as control
Protocol: Antitumor activity on leukemia cell line (P388) in lymphocyte of mice
Spleen lymphocytes of mice and leukemia cell line (P388) were used for this experiment. Spleen lymphocytes (4×10^6 cells) and leukemia cells (P388) (2×10^8 cells) were cultured in a medium (RPMI 1640 supplemented with 20 μM mercaptoethanol and 10% fetal bovine serum) containing intestinal flora metabolite of ginseng saponin (2.5 μM) in 5% CO2 saturated with steam for 16 hours. Aside from this, same numbers of spleen lymphocytes or leukemia cell line were cultured in a medium containing intestinal flora metabolite of ginseng saponin in same is concentration as a control. The number of each survived cell was purified by MTT method to calculate impaired rate of cells on leukemia cells (P388) of lymphocytes.

[3] = system: leukemia cell line (K562); test: Inhibition on the proliferation of leukemia cell line K562, MTT; format: cell-based; conditions: for pIC50: Homo sapiens, K562, 24 hours, MTT; for inhibitory activities on the proliferation of tumor cells: in words
Protocol: (§1) Inhibition on the vascularization of tumor (Test for the inhibition on the proliferation)
(§2) Human lymphocyte (HL), leukemia cell line (K562) and bovine artery endotheliocyte (BAE) were used for this experiment. HL (1×10^5 cells), leukemia cell line (K562) (2×10^5 cells) and BAE (5×10^3 cells) were cultured in a medium (HL, K562: RPMI 1640 medium containg 10% fetal bovine, BAE: DMEM medium containing 10% fetal bovine) containing intestinal flora metabolites of ginseng saponin concentrated with 2-fold dilution in 5% CO2 saturated with steam (HL, K562: 24 hours, BAE: 72 hours). The number of each survived cell was purified by MTT method to calculate 50% inhibition concentration (IC50), impaired rate of cells (IC50 (HL)/IC50 (BAE) and IC50 (K562)/IC50 (BAE).

[4] = system: Human adenosarcoma tissue cell (HT1080); test: Inhibition on the extravasation of basement membrane (haptoinvasion, matrigel/FN filter); format: cell-based; conditions: for pIC50 / inhibition at 10 µM / inhibition at 100 µM / inhibition at 1000 µM / inhibition at 1 µM: Homo sapiens; for pIC50: HT-1080, 4 h, 50% inhibition of extravasation, read-out: ED50 (50% extravasation-inhibitory concentration); for inhibition at 10 µM / inhibition at 100 µM / inhibition at 1000 µM / inhibition at 1 µM: HT-1080, read-out: Inhibition rate (%)
Protocol: Inhibition on the extravasation of basement membrane
The transwell culture chamber was used for this experiment with a haptoinvasion method (reference: Cancer Res., 47, 3239, (1987)). The lower side of a filter having a hole of 8.0 μm in diameter was coated with 5 μg of matrigel for the fabrication of matrigel/FN filter. Human […] tissue cell (HT1080), treated in the intestinal flora metabolite of ginseng saponin in a concentration of 1-1000 μM at 37° C. for 30 minutes, was charged to the upper side of each filter with 1×10^5 cells/100 μL. Then, said filters were added to 24-well plate having 600 μL of MEM medium supplemented with 0.1% bovine serum albumin and them cultured for 4-hour cultivation. After completing the cultivation, cells were fixed with methanol and stained with hematoxylin, a tissue staining agent. Following the removal of cells at the upper side with a cotton pole, cells infiltrating into the lower side were counted under microscope.

[5] = system: bovine artery endotheliocyte (BAE); test: Inhibition on the proliferation of bovine artery endotheliocyte (BAE), MTT; format: cell-based; conditions: for pIC50: Bos taurus, BAE, 72 hours, MTT; for IC50 (C)/IC50 (BAE), C = HL: ratio IC50 (HL)/IC50 (BAE); for IC50 (C)/IC50 (BAE), C = K562: ratio IC50 (K562)/IC50 (BAE)
Protocol: as §1, §2

[6] = system: Human lymphocyte (HL); test: Inhibition on the proliferation of human lymphocyte (HL), MTT; format: cell-based; conditions: 24 hours
Protocol: as §1, §2

[7] = system: bovine artery endotheliocyte (BAE); test: Inhibition on the migration of bovine artery endotheliocyte (vascularization of tumor); format: cell-based; conditions: for Migration-inhibition (% control), IC10: at the 10% inhibitory concentration (IC10); for Migration-inhibition (% control), IC10 / Migration-inhibition (% control), IC50: 24 hours; for Migration-inhibition (% control), IC50: at the 50% inhibitory concentration (IC50)
Protocol: Inhibition on the vascularization of tumor (Test for the inhibition on the migration)
Bovine artery endotheliocyte (BAE) was used for this experiment. BAE (5×10^3 cells) was cultured in 6-well plate for 24 hours and cells attached to the plate were detached by a razor. Said medium was replaced by a new one and after one hour, a solution of intestinal flora metabolite of ginseng saponin was added to the desired inhibitory concentration of 10% and 50%, respectively for 24-hour cultivation. After completing the cultivation, cells were fixed with methanol, stained with Giemsa method and counted the cells migrated from the detached line under microscope.

[8] = Toxicity in animal experiments with rats and mice
[9] = system: liver cancer cells; conditions: Japanese Patent No. 89-28759; cited from earlier work

Row | Compound | activity at 2.5 µM [2] [%] | fold induction at 2.5 µM [2] | pIC50 [3] | No. of infiltrated cancer cell/field ([4]; 1 μM) [cell/field] | No. of infiltrated cancer cell/field ([4]; 10 μM) [cell/field] | No. of infiltrated cancer cell/field ([4]; 100 μM) [cell/field] | No. of infiltrated cancer cell/field ([4]; 1000 μM) [cell/field] | pIC50 [4] | inhibition at 10 µM ([4]; 10 μM) [%] | inhibition at 100 µM ([4]; 100 μM) [%] | inhibition at 1000 µM ([4]; 1000 μM) [%] | pIC50 [5] | IC50 (C)/IC50 (BAE), C = HL [5] | IC50 (C)/IC50 (BAE), C = K562 [5] | pIC50 [6] | Migration-inhibition (% control), IC10 [7] [% control] | Migration-inhibition (% control), IC50 [7] [% control] | also measured
1 | CC(C)=CCC[C@](C)(O[C@@H]1O[C@H](CO[C@@H]2OC[C@H](O)[C@H](O)[C@H]2O)[C@@H](O)[C@H](O)[C@H]1O)[C@H]1CC[C@]2(C)[C@@H]1[C@H](O)C[C@@H]1[C@@]3(C)CC[C@H](O[C@@H]4O[C@H](CO)[C@@H](O)[C@H](O)[C@H]4O[C@@H]4O[C@H](CO)[C@@H](O)[C@H](O)[C@H]4O)C(C)(C)[C@@H]3CC[C@]12C [ginsenoside Rb2] | – | – | – | – | – | – | – | – | – | – | – | – | – | – | – | – | – | inhibition of vascularization of tumors, extravasation and metastasis of cancer cells [1]: inhibit the vascularization of tumors and extravasation of cancer cells including inhibitory actions on the metastatis of cancer cells
2 | CC(C)=CCC[C@](C)(O[C@@H]1O[C@H](CO[C@@H]2OC[C@H](O)[C@H](O)[C@H]2O)[C@@H](O)[C@H](O)[C@H]1O)[C@H]1CC[C@]2(C)[C@@H]1[C@H](O)C[C@@H]1[C@@]3(C)CC[C@H](O)C(C)(C)[C@@H]3CC[C@]12C [Compound Y, 20-0-[α-L-arabinopyranosyl (1→6)-β-D-glucopyranosyl]-20(S)-protopanaxadiol] | 56.6 | 1.8 | 4.11 | 125 ± 7 | 92 ± 11 | 24 ± 2 | 0 | 4.51 | 21 | 62 | 100 | 4.49 | 2.6 | 2.6 | 4.08 | -3.7 | 28.9 | –
3 | Cc1ccc(C(=O)Nc2ccc(S(=O)(=O)O)c3cc(S(=O)(=O)O)cc(S(=O)(=O)O)c23)cc1NC(=O)c1cccc(NC(=O)Nc2cccc(C(=O)Nc3cc(C(=O)Nc4ccc(S(=O)(=O)O)c5cc(S(=O)(=O)O)cc(S(=O)(=O)O)c45)ccc3C)c2)c1 [Suramin, reference compound] | – | – | – | – | – | – | – | – | – | – | – | – | – | – | – | -3.8 | 37.1 | –
4 | CC(C)=CCC[C@](C)(O)[C@H]1CC[C@]2(C)[C@@H]1[C@H](O)C[C@@H]1[C@@]3(C)CC[C@H](O)C(C)(C)[C@@H]3[C@@H](O)C[C@]12C [20(S)-protopanaxatriol] | 82.4 | 2 | 4.31 | 103 ± 14 | 93 ± 7 | 18 ± 4 | 1 ± 1 | 4.32 | 4 | 81 | 99 | 4.44 | 7.8 | 1.4 | 3.55 | -1.6 | 30.0 | inhibitory activities on the proliferation of tumor cells [3]: exhibited inhibitory activities on the proliferation of tumor cells
5 | CC(C)=CCC[C@@](C)(O)[C@H]1CC[C@]2(C)[C@@H]1[C@H](O)C[C@@H]1[C@@]3(C)CC[C@H](O[C@@H]4O[C@H](CO)[C@@H](O)[C@H](O)[C@H]4O[C@@H]4O[C@H](CO)[C@@H](O)[C@H](O)[C@H]4O)C(C)(C)[C@@H]3CC[C@]12C [ginsenoside Rg3, 3-0-[β-D-glucopyranosyl(1→2)-β-D-glucopyranosyl]-20(R)-protopanaxadiol] | – | – | – | – | – | – | – | – | – | – | – | – | – | – | – | – | – | inhibition of vascularization of tumors, extravasation and metastasis of cancer cells [1]: inhibit the vascularization of tumors and extravasation of cancer cells including inhibitory actions on the metastatis of cancer cells
6 | CC(C)=CCC[C@](C)(O[C@@H]1O[C@H](CO[C@@H]2O[C@@H](CO)[C@H](O)[C@H]2O)[C@@H](O)[C@H](O)[C@H]1O)[C@H]1CC[C@]2(C)[C@@H]1[C@H](O)C[C@@H]1[C@@]3(C)CC[C@H](O)C(C)(C)[C@@H]3CC[C@]12C [Ginsenoside Mc, 20-0-[α-L-arabinofuranosyl(1→6)-β-D-glucopyranosyl-20(S)-protopanaxadiol]] | 63.3 | 2 | 3.32 | 114 ± 12 | 44 ± 7 | 3 ± 1 | 0 | 5.12 | 62 | 97 | 100 | 4.59 | 8.5 | 18 | 3.66 | -1.6 | 30.0 | inhibitory activities on the proliferation of tumor cells [3]: exhibited inhibitory activities on the proliferation of tumor cells; toxicity [8]: nearly negligible; inhibition at 1 µM ([4]; 1 μM): 3%
7 | CC(C)=CCC[C@](C)(O)[C@H]1CC[C@]2(C)[C@@H]1[C@H](O)C[C@@H]1[C@@]3(C)CC[C@H](O[C@@H]4O[C@H](CO)[C@@H](O)[C@H](O)[C@H]4O)C(C)(C)[C@@H]3CC[C@]12C [ginsenoside Rh2, 3-0-β-D-glucopyranosyl-20(s)-protopanaxadiol] | – | – | – | – | – | – | – | – | – | – | – | – | – | – | – | – | – | inhibition of the proliferation of liver cancer cells [9]: inhibit the proliferation of liver cancer cells
8 | CC(C)=CCC[C@](C)(O[C@@H]1O[C@H](CO)[C@@H](O)[C@H](O)[C@H]1O)[C@H]1CC[C@]2(C)[C@@H]1[C@H](O)C[C@@H]1[C@@]3(C)CC[C@H](O)C(C)(C)[C@@H]3CC[C@]12C [Compound K] | 51.5 | 1.6 | 4.59 | 73 ± 4 | 45 ± 9 | 0 | – | 5.49 | 62 | 100 | – | 4.55 | 1.7 | 1.6 | 4.35 | 4.6 | 43.2 | inhibition at 1 µM ([4]; 1 μM): 38%; inhibitory activity of migration ([7]; in words, control Suramin): more potent inhibitory activity of migration than Suramin
